Laboratory results published in ChEMBL document CHEMBL3351673, “Synthesis and evaluation of new indole-based chalcones as potential antiinflammatory agents” (Eur J Med Chem, 2015).
≈ marks a conversion by molar mass, not a printed value.

Legend:
Rattus norvegicus [1] = experiment: Antiinflammatory activity in Sprague-Dawley rat model of LPS-induced sepsis assessed as nitric oxide level at 5 mg/kg/day dosed through gastric intubation for 6 days by cadmium reduction method (reference value: 28.6 +/- 2.4 umol/L); assay type: functional
[2] = target: T1, Prostaglandin G/H synthase 1 (Ovis aries, UniProt P05979); experiment: Inhibition of ovine COX1 using arachidonic acid substrate incubated for 5 mins by colorimetry
T1 sequence (P05979 whole entry): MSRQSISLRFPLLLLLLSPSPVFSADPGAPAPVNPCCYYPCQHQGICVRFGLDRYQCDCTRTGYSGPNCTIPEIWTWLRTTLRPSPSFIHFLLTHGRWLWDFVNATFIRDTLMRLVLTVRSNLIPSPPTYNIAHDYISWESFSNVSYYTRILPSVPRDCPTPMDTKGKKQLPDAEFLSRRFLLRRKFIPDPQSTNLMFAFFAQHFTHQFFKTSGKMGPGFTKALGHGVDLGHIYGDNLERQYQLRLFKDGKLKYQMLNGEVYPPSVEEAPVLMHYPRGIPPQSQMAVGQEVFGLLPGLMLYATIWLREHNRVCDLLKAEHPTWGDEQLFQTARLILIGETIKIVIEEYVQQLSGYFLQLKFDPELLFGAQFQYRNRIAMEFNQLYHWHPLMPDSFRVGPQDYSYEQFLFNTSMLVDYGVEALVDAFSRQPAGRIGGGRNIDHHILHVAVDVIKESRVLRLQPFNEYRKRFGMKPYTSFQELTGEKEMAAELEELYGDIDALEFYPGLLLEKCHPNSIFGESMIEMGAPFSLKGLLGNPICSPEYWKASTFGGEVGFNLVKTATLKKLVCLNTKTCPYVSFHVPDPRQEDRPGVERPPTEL

Rattus norvegicus [3] = experiment: Antiinflammatory activity in Sprague-Dawley rat model of LPS-induced sepsis assessed as AST level at 5 mg/kg/day dosed through gastric intubation for 6 days (reference value: 148.9 +/- 41.3 U/L); assay type: functional
Rattus norvegicus [4] = experiment: Antiinflammatory activity in Sprague-Dawley rat model of LPS-induced sepsis assessed as serum MDA level at 5 mg/kg/day dosed through gastric intubation for 6 days (reference value: 4.7 +/- 2.8 mg/L); assay type: functional
Rattus norvegicus [5] = experiment: Antiinflammatory activity in Sprague-Dawley rat model of LPS-induced sepsis assessed as MPO level at 5 mg/kg/day dosed through gastric intubation for 6 days (reference value: 4.2 +/- 1.8 […]); assay type: functional
[6] = Cytotoxicity against mouse NIH/3T3 cells incubated for 24 hrs by CCK8 assay; assay type: cell-based; settings: NIH3T3, 24 h
Rattus norvegicus [7] = experiment: Antiinflammatory activity in Sprague-Dawley rat model of LPS-induced sepsis assessed as ALT level at 5 mg/kg/day dosed through gastric intubation for 6 days (reference value: 70.3 +/- 7.9 U/L); assay type: functional
Rattus norvegicus [8] = experiment: Antiinflammatory activity in Sprague-Dawley rat model of LPS-induced sepsis assessed as hsCRP level at 5 mg/kg/day dosed through gastric intubation for 6 days (reference value: 1.9 +/- 0.3 mg/L); assay type: functional

Row | Compound | IC50 [2] [µM] | Activity (Rattus norvegicus [1]) [µmol/L] | Activity (Rattus norvegicus [3]) [U/L] | Activity (Rattus norvegicus [4]) [nmol/mL] | Activity (Rattus norvegicus [5]) [U/L] | IC50 [6] [µg/mL] | Activity (Rattus norvegicus [7]) [U/L] | Activity (Rattus norvegicus [8]) [mg/L]
1 | COc1ccc2[nH]cc(/C=C/C(=O)c3ccc(C#N)cc3)c2c1 | > 33.1 |  |  |  |  | 20 (≈ 66.2 µM) |  | 
2 | CS(=O)(=O)c1ccc(C(=O)/C=C/c2c[nH]c3ccc(Cl)cc23)cc1 | > 27.8 |  |  |  |  | 21 (≈ 58.4 µM) |  | 
3 | N#Cc1ccc(C(=O)/C=C/c2c[nH]c3ccc(Cl)cc23)cc1 | > 32.6 |  |  |  |  | 33.3 (≈ 109 µM) |  | 
4 | Cn1cc(/C=C/C(=O)c2ccc(S(C)(=O)=O)cc2)c2ccccc21 | > 29.5 |  |  |  |  | 350 (≈ 1030 µM) |  | 
5 | CC(=O)Nc1ccc(C(=O)/C=C/c2cn(C)c3ccccc23)cc1 | > 31.4 |  |  |  |  | 96.6 (≈ 303 µM) |  | 
6 | COc1ccc2c(c1)c(CC(=O)O)c(C)n2C(=O)c1ccc(Cl)cc1 [INDOMETHACIN] |  | 26.2 | 92.5 | 2.7 | 0.6 |  | 67.6 | 1.1

More lines, main results first:

Row | IC50 [2] [µM] | Compound | Activity (Rattus norvegicus [1]) [µmol/L] | Activity (Rattus norvegicus [3]) [U/L] | Activity (Rattus norvegicus [4]) [nmol/mL] | Activity (Rattus norvegicus [5]) [U/L] | IC50 [6] [µg/mL] | Activity (Rattus norvegicus [7]) [U/L] | Activity (Rattus norvegicus [8]) [mg/L]
7 | 24.2 | COc1ccc2[nH]cc(/C=C/C(=O)c3ccc(S(C)(=O)=O)cc3)c2c1 | 25.6 | 93.8 | 2.6 | 0.6 | 32.3 (≈ 90.9 µM) | 60.9 | 1
8 | > 24.7 | CS(=O)(=O)c1ccc(C(=O)/C=C/c2c[nH]c3ccc(Br)cc23)cc1 |  |  |  |  | 17.3 (≈ 42.8 µM) |  | 
9 | 23.1 | N#Cc1ccc(C(=O)/C=C/c2c[nH]c3ccc(Br)cc23)cc1 | 26.2 | 98.8 | 2.5 | 0.8 | 51.6 (≈ 147 µM) | 62.4 | 0.6
10 | 33.9 | Cn1cc(/C=C/C(=O)c2ccc(C#N)cc2)c2ccccc21 |  |  |  |  | 210 (≈ 733 µM) |  | 
